Measured values: patent US4326054A, “Cleomycins and process for producing same” (Zaidan Hojin Biseibutsu Kagaku Kenkyu Kai, priority 1979, dated 1982)

test system: Mycobacterium smegmatis ATCC 607; assay: Antimicrobial activity, agar plate-cylinder method, bleomycin A2 as standard (1,000 u/mg); format: cell-based; conditions: Table 5; copper-free form; relative to bleomycin A2 = 1,000 u/mg
Procedure: Typical examples of the biological activities measured on cleomycins (copper-free form) are illustrated below.
Comparison was made with the relevant antibiotics bleomycins. The relative antimicrobial potency (u/mg) against Mycobacterium smegmatis ATCC 607 was measured by agar plate-cylinder method using bleomycin A2 as a standard (1,000 u/mg).
(Note: The antimicrobial potency was determined by taking bleomycin
A2 as 1,000 μ/mg and using Mycobacterium smegmatis ATCC 607 as a
test bacterium. Herinafter, the same was applied.)

Structure (SMILES) | Antimicrobiral potency
Cc1c(N)nc(C(CC(N)=O)NCC(N)C(N)=O)nc1C(=O)NC(C(=O)NC(C)C(O)C(C)C(=O)NC(C(=O)NCCc1nc(-c2nc(C(=O)NCCN)cs2)cs1)C1(O)CC1)C(OC1OC(CO)C(O)C(O)C1OC1OC(CO)C(O)C(OC(N)=O)C1O)c1cnc[nH]1 (stereo not drawn) [Compound No. 3, 2-aminoethylaminocleomycin] | 2,760 u/mg
Cc1c(N)nc(C(CC(N)=O)NCC(N)C(N)=O)nc1C(=O)NC(C(=O)NC(C)C(O)C(C)C(=O)NC(C(=O)NCCc1nc(-c2nc(C(=O)NCCCN)cs2)cs1)C1(O)CC1)C(OC1OC(CO)C(O)C(O)C1OC1OC(CO)C(O)C(OC(N)=O)C1O)c1cnc[nH]1 (stereo not drawn) [compound 4, 3-aminopropylaminocleomycin] | 2,150 u/mg
Cc1c(N)nc(C(CC(N)=O)NCC(N)C(N)=O)nc1C(=O)NC(C(=O)NC(C)C(O)C(C)C(=O)NC(C(=O)NCCc1nc(-c2nc(C(=O)NCCCCN)cs2)cs1)C1(O)CC1)C(OC1OC(CO)C(O)C(O)C1OC1OC(CO)C(O)C(OC(N)=O)C1O)c1cnc[nH]1 (stereo not drawn) [compound 5, 4-aminobutylaminocleomycin] | 1,935 u/mg
Cc1c(N)nc(C(CC(N)=O)NCC(N)C(N)=O)nc1C(=O)NC(C(=O)NC(C)C(O)C(C)C(=O)NC(C(=O)NCCc1nc(-c2nc(C(=O)NCCCNCCCCN)cs2)cs1)C1(O)CC1)C(OC1OC(CO)C(O)C(O)C1OC1OC(CO)C(O)C(OC(N)=O)C1O)c1cnc[nH]1 (stereo not drawn) [compound 6, 3-(4-aminobutylamino)propylaminocleomycin] | 3,575 u/mg
Cc1c(N)nc(C(CC(N)=O)NCC(N)C(N)=O)nc1C(=O)NC(C(=O)NC(C)C(O)C(C)C(=O)NC(C(=O)NCCc1nc(-c2nc(C(=O)NCCNCC(C)O)cs2)cs1)C1(O)CC1)C(OC1OC(CO)C(O)C(O)C1OC1OC(CO)C(O)C(OC(N)=O)C1O)c1cnc[nH]1 (stereo not drawn) [compound 12, 2-(2-hydroxypropylamino)ethylaminocleomycin] | 2,280 u/mg
Cc1c(N)nc(C(CC(N)=O)NCC(N)C(N)=O)nc1C(=O)NC(C(=O)NC(C)C(O)C(C)C(=O)NC(C(=O)NCCc1nc(-c2nc(C(=O)NCCCN3CCNCC3)cs2)cs1)C1(O)CC1)C(OC1OC(CO)C(O)C(O)C1OC1OC(CO)C(O)C(OC(N)=O)C1O)c1cnc[nH]1 (stereo not drawn) [compound 13, 3-(1-piperazinyl)propylaminocleomycin] | 980 u/mg
Cc1c(N)nc(C(CC(N)=O)NCC(N)C(N)=O)nc1C(=O)NC(C(=O)NC(C)C(O)C(C)C(=O)NC(C(=O)NCCc1nc(-c2nc(C(=O)NCCCNCCCNC(C)c3ccccc3)cs2)cs1)C1(O)CC1)C(OC1OC(CO)C(O)C(O)C1OC1OC(CO)C(O)C(OC(N)=O)C1O)c1cnc[nH]1 (stereo not drawn) [compound 14, 3-[3-(1-phenylethylamino)propylamino]propylaminocleomycin] | 11,420 u/mg
Cc1c(N)nc(C(CC(N)=O)NCC(N)C(N)=O)nc1C(=O)NC(C(=O)NC(C)C(O)C(C)C(=O)NC(C(=O)NCCc1nc(-c2nc(C(=O)NCCC[N+](C)(C)C)cs2)cs1)C1(O)CC1)C(OC1OC(CO)C(O)C(O)C1OC1OC(CO)C(O)C(OC(N)=O)C1O)c1cnc[nH]1 (stereo not drawn) [compound 18, 3-(N,N,N-trimethylamino)propylaminocleomycin] | 878 u/mg
Cc1c(N)nc(C(CC(N)=O)NCC(N)C(N)=O)nc1C(=O)NC(C(=O)NC(C)C(O)C(C)C(=O)NC(C(=O)NCCc1nc(-c2nc(C(=O)NCCCNCCCN(C)C)cs2)cs1)C1(O)CC1)C(OC1OC(CO)C(O)C(O)C1OC1OC(CO)C(O)C(OC(N)=O)C1O)c1cnc[nH]1 (stereo not drawn) [compound 19, 3-[3-(N,N-dimethylamino)propyl]propylaminocleomycin] | 2,004 u/mg
Cc1c(N)nc(C(CC(N)=O)NCC(N)C(N)=O)nc1C(=O)NC(C(=O)NC(C)C(O)C(C)C(=O)NC(C(=O)NCCc1nc(-c2nc(C(=O)NCCCNC(C)CCN)cs2)cs1)C1(O)CC1)C(OC1OC(CO)C(O)C(O)C1OC1OC(CO)C(O)C(OC(N)=O)C1O)c1cnc[nH]1 (stereo not drawn) [compound 21, 3-(3-amino-1-methylpropylamino)propylaminocleomycin] | 2,620 u/mg
Cc1c(N)nc(C(CC(N)=O)NCC(N)C(N)=O)nc1C(=O)NC(C(=O)NC(C)C(O)C(C)C(=O)NC(C(=O)NCCc1nc(-c2nc(C(=O)NCCCN3CCOCC3)cs2)cs1)C1(O)CC1)C(OC1OC(CO)C(O)C(O)C1OC1OC(CO)C(O)C(OC(N)=O)C1O)c1cnc[nH]1 (stereo not drawn) [compound 24, 3-morpholinopropylaminocleomycin] | 800 u/mg
Cc1c(N)nc(C(CC(N)=O)NCC(N)C(N)=O)nc1C(=O)NC(C(=O)NC(C)C(O)C(C)C(=O)NC(C(=O)NCCc1nc(-c2nc(C(=O)NCCCNCCCN3CCCC3)cs2)cs1)C1(O)CC1)C(OC1OC(CO)C(O)C(O)C1OC1OC(CO)C(O)C(OC(N)=O)C1O)c1cnc[nH]1 (stereo not drawn) [compound 26, 3-[3-(1-pyrrolidinyl)propylamino]propylaminocleomycin] | 3,590 u/mg
Cc1c(N)nc(C(CC(N)=O)NCC(N)C(N)=O)nc1C(=O)NC(C(=O)NC(C)C(O)C(C)C(=O)NC(C(=O)NCCc1nc(-c2nc(C(=O)NCCCNCCCN3CCOCC3)cs2)cs1)C1(O)CC1)C(OC1OC(CO)C(O)C(O)C1OC1OC(CO)C(O)C(OC(N)=O)C1O)c1cnc[nH]1 (stereo not drawn) [compound 28, 3-(3-morpholinopropylamino)propylaminocleomycin] | 1,715 u/mg
COCCCNCCCNC(=O)c1csc(-c2csc(CCNC(=O)C(NC(=O)C(C)C(O)C(C)NC(=O)C(NC(=O)c3nc(C(CC(N)=O)NCC(N)C(N)=O)nc(N)c3C)C(OC3OC(CO)C(O)C(O)C3OC3OC(CO)C(O)C(OC(N)=O)C3O)c3cnc[nH]3)C3(O)CC3)n2)n1 (stereo not drawn) [compound 31, 3-(3-methoxypropylamino)propylaminocleomycin] | 1,869 u/mg
Cc1c(N)nc(C(CC(N)=O)NCC(N)C(N)=O)nc1C(=O)NC(C(=O)NC(C)C(O)C(C)C(=O)NC(C(=O)NCCc1nc(-c2nc(C(=O)NCCCNCc3ccccc3)cs2)cs1)C1(O)CC1)C(OC1OC(CO)C(O)C(O)C1OC1OC(CO)C(O)C(OC(N)=O)C1O)c1cnc[nH]1 (stereo not drawn) [compound 32, 3-benzylaminopropylaminocleomycin] | 6.977 u/mg
Cc1c(N)nc(C(CC(N)=O)NCC(N)C(N)=O)nc1C(=O)NC(C(=O)NC(C)C(O)C(C)C(=O)NC(C(=O)NCCc1nc(-c2nc(C(=O)NCCCNCCCNC3CCCCC3)cs2)cs1)C1(O)CC1)C(OC1OC(CO)C(O)C(O)C1OC1OC(CO)C(O)C(OC(N)=O)C1O)c1cnc[nH]1 (stereo not drawn) [compound 37, 3-(3-cyclohexylaminopropylamino)propylaminocleomycin] | 14,784 u/mg
Cc1c(N)nc(C(CC(N)=O)NCC(N)C(N)=O)nc1C(=O)NC(C(=O)NC(C)C(O)C(C)C(=O)NC(C(=O)NCCc1nc(-c2nc(C(=O)NCCc3cnc[nH]3)cs2)cs1)C1(O)CC1)C(OC1OC(CO)C(O)C(O)C1OC1OC(CO)C(O)C(OC(N)=O)C1O)c1cnc[nH]1 (stereo not drawn) [compound 40, 2-(4-imidazolyl)ethylaminocleomycin] | 1,147 u/mg
Cc1c(N)nc(C(CC(N)=O)NCC(N)C(N)=O)nc1C(=O)NC(C(=O)NC(C)C(O)C(C)C(=O)NC(C(=O)NCCc1nc(-c2nc(C(=O)NCCCNCCc3ccccn3)cs2)cs1)C1(O)CC1)C(OC1OC(CO)C(O)C(O)C1OC1OC(CO)C(O)C(OC(N)=O)C1O)c1cnc[nH]1 (stereo not drawn) [compound 41, 3-[2-(2-pyridyl)ethylamino]propylaminocleomycin] | 6,068 u/mg
